Results reported in US7585839B2, “Medical uses of intercellular communication facilitating compounds” (Zealand Pharma A/S, priority 2001, dated 2009).
Where a SMILES comes first, the peptide text is derived from it. [ ]: non-standard residue; d: D form. The star is where a group is joined. Dnp = O=[N+]([O-])c1ccc(*)c([N+](=O)[O-])c1; X1 = [N-]=[N+]=Nc1cc(O)c(C(=O)*)cc1I; Hyp = O=C(O)[C@@H]1C[C@@H](O)CN1; dHyp = O=C(O)[C@H]1C[C@H](O)CN1; Pip = O=C(O)[C@@H]1CCCCN1; Thz = O=C(O)[C@@H]1CSCN1; Acm = CC(=O)NC*; Sar = CNCC(=O)O

Tested on: calcium-induced arrythmias
Assay: Calcium-induced arrhythmia model in mice (CaCl2-induced 2nd degree AV-block)
Assay type: in vivo
Set-up: CaCl2 mice Score: scale not given here
Details: for CaCl2 mice Score / CaCl2 mice In vivo, %: calcium chloride induced arrythmia model; for In vivo activity: maximal effect, increase in time until 2nd degree AV-block relative to vehicle treated mice, i.v.
Protocol: The antiarrhythmic effects of compounds of this invention were tested in an in vivo model of calcium-induced arrythmias according to the model of Lynch et al.^[37]. […]. Commercial solutions of hypnorm and midazolam were diluted 1:1 in distilled water and one part diluted Hypnorm® is mixed with one part diluted midazolam.
The anaesthesia was induced by s.c. administration in a dose of 0.05-0.075 μl/10 gram mouse. An i.v. cannula was inserted into the tail vein. The lead II ECG signal was recorded continuously by positioning of a stainless steel ECG electrodes on the right forelimb and on the left hind limb. The ground electrode was placed on the right hind limb. The signal was amplified (×5.000-10.000) and filtered (0.1-150 Hz) via a Hugo Sachs Electronic model 689 ECG module. The analogue signal was digitised via a 12 bit data acquisition board (Data Translation model DT321) and sampled at 1000 Hz using the Notocord HEM 3.1 software for Windows NT. After a 10-min equilibration period, the test sample of drug was injected into the tail vein. Mice pre-treated with vehicle were tested as a measure of the control level in untreated animals. The injection volume was 100 μl in all experiments. Infusion of CaCl2 (30 mg/ml, 0.1 ml/min≈100 mg/kg/min (calciumchlorid-2-hydrat, Riedel-de Haën, Germany)) was started 3 min after i.v. administration of drug or vehicle.
The time lag to onset of 2nd degree AV-block was determined as the time from the start of CaCl2 infusion until the first arrhythmic event occured. An event of 2nd degree AV-block was defined as intermittent failure of the AV conduction characterised by a P-wave without the concomitant QRS complex.
Responses were expressed relative to the time until 2nd degree AV-block occurred in vehicle treated mice.

Row | Compound | CaCl2 mice Score | In vivo activity | CaCl2 mice In vivo, %
1 | C[C@H](NC(=O)CNC(=O)[C@H](CC(N)=O)NC(=O)[C@H](Cc1ccc(O)cc1)NC(=O)[C@@H]1CCCN1C(=O)[C@@H]1C[C@@H](O)CN1)C(=O)NCC(N)=O [Compound 28, H-Hyp-Pro-Tyr-Asn-Gly-Ala-Gly-NH2] (H-[Hyp]PYNGAG-NH2) | 2 | (+) ((+) refers to <15% in time until arrhythmia) | –
2 | 3(4-hydroxyphenyl)propionyl-Pro-Hyp-Gly-Ala-Gly-Lys-Lys-Lys-Lys-Lys-Lys-OH [Compound 49] | 3 | – | 80 +/− 17%
3 | H-Gly-Ala-Gly-Asn-Tyr-NH2 [Compound 39] | 2 | +++ (+++ refers to >60% increase in time until arrhythmia) | 53 +/− 15%
4 | C[C@H](NC(=O)CN)C(=O)N(C)CC(=O)N1C[C@H](O)C[C@H]1C(=O)N1CCC[C@H]1C(=O)N[C@@H](Cc1ccc(O)cc1)C(N)=O [Compound 30, H-Gly-Ala-Sar-Hyp-Pro-Tyr-NH2] (H-GA[Sar][Hyp]PY-NH2) | 2 | ++ (++ refers to 30-50% increase in time until arrhythmia) | –
5 | [Pro^4]AAP10-NH2 [reference compound] | 3 | – | 62 +/− 9%
6 | C[C@H](NC(=O)CNC(=O)[C@@H]1C[C@@H](O)CN1C(=O)[C@@H]1CCCN1C(=O)c1cc(I)c(N=[N+]=[N-])cc1O)C(=O)NCC(N)=O [Compound 32, ASAL(mono-iodo)-Pro-Hyp-Gly-Ala-Gly-NH2] (X1-P[Hyp]GAG-NH2) | – | +++ (+++ refers to >60% increase in time until arrhythmia) | –
7 | C[C@H](NC(=O)CN)C(=O)N[C@@H](CC(N)=O)C(=O)N[C@@H](Cc1ccc(O)cc1)C(N)=O [H-GANY-NH2] (H-GANY-NH2) | – | – | 21 +/− 7%
8 | C[C@H](NC(=O)CN)C(=O)NCC(=O)N1C[C@H](O)C[C@H]1C(=O)N1CCC[C@H]1C(=O)N[C@@H](Cc1ccc(O)cc1)C(=O)N[C@@H](CCCCN)C(=O)N[C@@H](CCCCN)C(=O)N[C@@H](CCCCN)C(=O)N[C@@H](CCCCN)C(=O)N[C@@H](CCCCN)C(=O)N[C@@H](CCCCN)C(N)=O [Compound 50] (H-GAG[Hyp]PYKKKKKK-NH2) | 2 | – | 33 +/− 17%
9 | CC(=O)N[C@@H](Cc1ccc(O)cc1)C(=O)N[C@H](CC(N)=O)C(=O)NCC(=O)O [Ac-Y-DN-G-OH] (Ac-Tyr-[dN]-Gly-OH) | – | – | 44 +/− 10%
10 | CF3C(O)-AAP10-NH2 | 3 | – | 48 +/− 13%
11 | C[C@H](NC(=O)CN)C(=O)NCC(=O)N1CCCC[C@H]1C(=O)N1CCC[C@H]1C(=O)N[C@@H](Cc1ccc(O)cc1)C(N)=O [Compound 14, H-Gly-Ala-Gly-PC-Pro-Tyr-NH2] (H-GAG[Pip]PY-NH2) | 1 | + (+ refers to 15-29% increase in time until arrhythmia) | 21 +/− 11%
12 | C[C@H](NC(=O)CN)C(=O)NCC(=O)N1C[C@@H](O)C[C@@H]1C(=O)N[C@@H](C)C(=O)N[C@@H](Cc1ccc(O)cc1)C(N)=O [Compound 9, H-Gly-Ala-Gly-D-Hyp-Ala-Tyr-NH2] (H-GAG[dHyp]AY-NH2) | 1 | + (+ refers to 15-29% increase in time until arrhythmia) | –
13 | CC(=O)NCC(=O)N[C@@H](CC(=O)O)C(=O)N[C@@H](CC(N)=O)C(=O)N[C@@H](Cc1ccc(O)cc1)C(N)=O [Ac-G-D-N-Y-NH2] (Ac-GDNY-NH2) | – | – | 19 +/− 8%
14 | C[C@H](NC(=O)CN)C(=O)NCC(=O)N1C[C@@H](O)C[C@@H]1C(=O)N1CCC[C@@H]1C(=O)N[C@@H](Cc1ccc(O)cc1)C(N)=O [Compound 10, H-Gly-Ala-Gly-D-Hyp-D-Pro-Tyr-NH2] (H-GAG[dHyp][dP]Y-NH2) | 2 | +++ (+++ refers to >60% increase in time until arrhythmia) | –
15 | NCC(=O)NCC(=O)N[C@@H](Cc1ccc(O)cc1)C(N)=O [H-GGY-NH2] (H-Gly-Gly-Tyr-NH2) | – | – | 39 +/− 9%
16 | H-Gly-Asn-Tyr-NH2 [Compound 41] | 2 | ++ (++ refers to 30-50% increase in time until arrhythmia) | 58 +/− 10%
17 | H-GP[Hyp]GAG-OH [AAP, reference compound] | 2 | – | 35 +/− 7%
18 | NCC(=O)N[C@@H](CCCCNc1ccc([N+](=O)[O-])cc1[N+](=O)[O-])C(=O)N[C@@H](Cc1ccc(O)cc1)C(N)=O [H-GK(DNP)Y-NH2] (H-Gly-Lys(Dnp)-Tyr-NH2) | – | – | 25 +/− 7%

Row | Compound | CaCl2 mice Score | In vivo activity | CaCl2 mice In vivo, %
19 | C[C@H](NC(=O)CN)C(=O)NCC(=O)N1C[C@@H](O)C[C@@H]1C(=O)N1CCC[C@H]1C(=O)N[C@@H](Cc1ccc(O)cc1)C(N)=O [Compound 5, H-Gly-Ala-Gly-D-Hyp-Pro-Tyr-NH2] (H-GAG[dHyp]PY-NH2) | 1 | ++ (++ refers to 30-50% increase in time until arrhythmia) | –
20 | NC(=O)CNC(=O)[C@H](CC(N)=O)NC(=O)[C@@H](N)Cc1ccc(O)cc1 [H-YNG-NH2] (H-Tyr-Asn-Gly-NH2) | – | – | 34 +/− 9%
21 | NCC(=O)N[C@H](CC(N)=O)C(=O)N[C@@H](Cc1ccc(O)cc1)C(N)=O [H-G-DN-Y-NH2] (H-Gly-[dN]-Tyr-NH2) | – | – | 37 +/− 10%
22 | C[C@H](NC(=O)CN)C(=O)NCC(=O)N1C[C@H](O)C[C@H]1C(=O)N1CCC[C@H]1C(=O)N[C@@H](Cc1ccc(O)cc1)C(=O)N[C@@H](CC(N)=O)C(N)=O [H-AAP-10-Asn-NH2] (H-GAG[Hyp]PYN-NH2) | – | – | 31 +/− 6%
23 | C[C@H](NC(=O)CN)C(=O)NCC(=O)N1CCC[C@@H]1C(=O)N[C@@H](C)C(=O)N[C@@H](Cc1ccc(O)cc1)C(N)=O [Compound 7, H-Gly-Ala-Gly-D-Pro-Ala-Tyr-NH2] (H-GAG[dP]AY-NH2) | 1 | – | –
24 | 3-(4-hydroxyphenyl)propionyl-Pro-Hyp-Gly-Ala-Gly-OH [HP5, reference compound] | 2 | ++ (++ refers to 30-50% increase in time until arrhythmia) | 50 +/− 11%
25 | H-GAGGPY-NH2 [H-GAGGPY-NH2] | – | – | 32 +/− 9%
26 | CNCC(=O)N[C@@H](C)C(=O)N(C)CC(=O)N1C[C@H](O)C[C@H]1C(=O)N1CCC[C@H]1C(=O)N[C@@H](Cc1ccc(O)cc1)C(N)=O [Compound 29, H-Sar-Ala-Sar-Hyp-Pro-Tyr-NH2] (H-[Sar]A[Sar][Hyp]PY-NH2) | 1 | + (+ refers to 15-29% increase in time until arrhythmia) | –
27 | CC(=O)NCSC[C@H](NC(=O)[C@H](Cc1ccc(O)cc1)NC(=O)[C@@H]1CCCN1C(=O)[C@@H]1C[C@@H](O)CN1C(=O)CNC(=O)[C@H](C)NC(=O)CNC(=O)[C@@H](N)CSCNC(C)=O)C(N)=O [Compound 16, H-Cys(Acm)-Gly-Ala-Gly-Hyp-Pro-Tyr-Cys(Acm)-NH2] (H-C(Acm)GAG[Hyp]PYC(Acm)-NH2) | 1 | + (+ refers to 15-29% increase in time until arrhythmia) | 23 +/− 10%
28 | Cyclo(Tyr-Pro-4Hyp-Gly-Ala-Gly-Asn) [Compound 3] | 2 | +++ (+++ refers to >60% increase in time until arrhythmia) | 59 +/− 9%
29 | CC(=O)N[C@@H](Cc1ccc(O)cc1)C(=O)N[C@@H](CC(=O)O)C(=O)N[C@@H](CC(N)=O)C(=O)NCC(N)=O [Ac-Y-D-N-G-NH2] (Ac-YDNG-NH2) | – | – | 17 +/− 8%
30 | Ac-Gly-Asn-Tyr-NH2 [Compound 40] | 2 | ++ (++ refers to 30-50% increase in time until arrhythmia) | 46 +/− 9%
31 | H-GAG[Hyp]PYKKKKKK-OH [Compound 48] | 3 | – | 64 +/− 10%
32 | CC(=O)N[C@@H](Cc1ccc(O)cc1)C(=O)N1CCC[C@H]1C(=O)N1C[C@H](O)C[C@H]1C(=O)NCC(=O)N[C@@H](C)C(=O)NCC(=O)O [Compound 1, Ac-Tyr-Pro-4Hyp-Gly-Ala-Gly-OH] (Ac-YP[Hyp]GAG-OH) | – | + (+ refers to 15-29% increase in time until arrhythmia) | 50 +/− 20%
33 | C[C@H](NC(=O)CN)C(=O)NCC(=O)N1CSC[C@H]1C(=O)N1CCC[C@H]1C(=O)N[C@@H](Cc1ccc(O)cc1)C(N)=O [Compound 12, H-Gly-Ala-Gly-T4C-Pro-Tyr-NH2] (H-GAG[Thz]PY-NH2) | 2 | ++ (++ refers to 30-50% increase in time until arrhythmia) | 32 +/− 6%
34 | H-DY-DN-G-NH2 | 1 | – | 25 +/− 9%
35 | NC(=O)C[C@@H](NC(=O)[C@@H](N)Cc1ccc(O)cc1)C(=O)NCC(=O)O [H-Y-DN-G-OH] (H-Tyr-[dN]-Gly-OH) | – | – | 39 +/− 9%
36 | 3(4-hydroxyphenyl)propionyl-Pro-Hyp-Gly-Ala-Gly-Lys-Lys-Lys-Lys-Lys-Lys-NH2 [Compound 51] | 1 | – | 21 +/− 17%
